Test results taken from US7566722B2, “Triazolopyrimidine derivatives as ADP P2Y12 receptor antagonists” (Janssen Pharmaceutica, N.V., priority 2006, dated 2009).

Columns and labels:
platelets = assay: In vitro platelet aggregation (ADP-induced, washed platelets); type: cell-based; conditions: Homo sapiens, washed platelets from healthy volunteers, agonist giving 60-70% aggregation, % inhibition of control ADP response
Procedure: Platelet aggregation studies were performed according to a published method (Bednar, B., Condra, C., Gould, R. J., and Connolly, T. M., Throm. Res., 77:453-463 (1995). Platelet-rich plasma (PRP) concentrates prepared from healthy volunteers who were aspirin free for at least 7 days by venipuncture using ACD-A as anticoagulant was purchased from Biological Specialties, Inc. (Colmar, Pa.). PRP was centrifuged at 730 g for 15 min. The platelet pellet was washed twice in CGS buffer (13 mM sodium citrate, 30 mM glucose, 120 mM NaCl, pH 6.5) containing 1 μ/ml apyrase (grade V, Sigma-Aldrich, St. Louis, Mo.), 1 mM EGTA, and resuspended in Tyrode's buffer (140 mM NaCl, 2.7 mM KCl, 12 mM NaHCO3, 0.76 mM Na2HPO4, 5.5 mM dextrose, 5.0 mM Hepes, 0.2% BSA, pH 7.4). The platelets were diluted to 3×10^8 platelets/ml and kept >45 min at 37° C. before use. 105 μl of washed platelets, 2 mM CaCl2 and […] of fibrinogen were added to a 96-well microliter plate.
Platelet aggregation was initiated by the addition of serial concentrations of ADP (BioData Corp. Horsham, Pa.). Buffer was added to one set of control wells. The assay plate was stirred constantly and intermittently placed in a microplate reader (Softmax, Molecular Devices, Menlo Park, Calif.) to read optical density (650 nm) at 0 and 5 minutes after the addition of the compound solutions. Aggregation was calculated as the decrease in optical density between the time 0- and 5-min measurements and expressed as % of aggregation. For the inhibition assay, platelet aggregation was conducted as described above except for compound additions. Test compounds were prepared in 100% DMSO and stored.
On the day of the assay, test compounds were diluted in the buffer containing 3% of DMSO as a 10× working solution. 15 μl of compound solutions were added to 105 μl of platelets 5 min prior to the addition of CaCl2 and fibrinogen.

P2Y12 receptor = target: T1, P2Y12 receptor (Homo sapiens, UniProt Q9H244); assay: Whole cell receptor binding assay, 2-MeS[3H]-ADP; conditions: HEK 293 cells stably transfected with P2Y12; 2-MeS[3H]-ADP 3 nM; 30 min at 37° C.; read-out: Inhibition of Receptor Binding (IC50 μM)
T1 construct: expressed in transfected cells
T1 sequence (Q9H244 whole entry): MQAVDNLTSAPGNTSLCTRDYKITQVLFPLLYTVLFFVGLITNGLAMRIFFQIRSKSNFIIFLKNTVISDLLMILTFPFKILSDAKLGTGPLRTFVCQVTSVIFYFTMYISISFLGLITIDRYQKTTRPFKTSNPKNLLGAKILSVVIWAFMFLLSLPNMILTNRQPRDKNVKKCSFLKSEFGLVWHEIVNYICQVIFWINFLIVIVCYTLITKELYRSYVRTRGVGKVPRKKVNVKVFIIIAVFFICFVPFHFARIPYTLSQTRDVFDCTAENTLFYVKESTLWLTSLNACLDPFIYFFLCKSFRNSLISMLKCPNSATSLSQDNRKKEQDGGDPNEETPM
Procedure: A whole cell-binding assay for 2-MeS [^3H]-ADP (Custom synthesized by Amersham BioScience, Piscataway, N.J.) to the P2Y12 receptor was performed.
A P2Y12 cDNA containing hygromycin resistant gene was transfected in HEK 293 cells. A stable cell line was obtained by a cloning selection method. The cells were cultured in DMEM supplemented with 10% FBS and 1× of p/s.
On the day of the assay, the cells were harvested and resuspended in 0.25% BSA-DMEM and adjusted to a cell concentration of 1.6×10^6/ml. 15 μl of each compound was mixed with 120 μl of cell suspension in 96 well assay plates and incubated for 5 min prior to the addition of the radio-labeled ligand 2-MeS[^3H]-ADP (3 nM final in 0.25% BSA-DMEM) or unlabeled […] (for non-specific binding). The reaction was then incubated for 30 min at 37° C. and stopped by adding cold DMEM. The labeled and unlabeled cells were separated by a filtration method using a Packard Filtermate 196 on to the unfilter-96 GF/B plate. The plates were dyed in a 37° C. oven for 1-2 hours and 50 μl of MicroScint-20 (PerkinElmer) was added to each well. The radioactivity was measured using a TOPCOUNT beta counter (Packard). The percent inhibition for each compound was calculated by the change in radioactivity as a % inhibition of the control to obtain an IC50, as shown in Table 2.

ADP P2Y12 receptor = target: T2, ADP P2Y12 receptor (Homo sapiens, UniProt Q9H244); assay: FLIPR calcium assay transducing Gi-coupled signaling to the Gq pathway (inhibition of ADP-induced calcium mobilization); type: cell-based; conditions: HEK 293 cells co-transfected with P2Y12 and Gqi5, ADP at EC60-70 dose
T2 construct: expressed in transfected cells
T2 sequence (Q9H244 whole entry): as above
Text: A FLIPR Calcium Assay Transducing Gi-Coupled Signaling to the Gq Pathway
The ADP P2Y12 subtype is a Gi coupled GPCR, which mediates inhibition of adenylate cyclase leading to decreased cAMP while Gq proteins primarily activate phospholipase C, which stimulates inositol-1,4,5-triphosphate (IP3) formation and a subsequent increase in intracellular Ca^2+ concentration, which can be easily measured by FLIPR. Prior to the development of a method to convert a Gi coupled GPCR signaling to a Gq coupled GPCR signaling, a significant barrier existed for the functional testing and screening of Gi coupled GPCRs. One popular method, GTPγS migration, is slow, produces a small signal and generates radioactive waste. The discovery that a small switch in the amino acid sequence in the Gi protein could convert it to a protein mediating a Gq coupled response has led to the development of robust, high throughput assays for this valuable receptor subtype.
The FLIPR-based HTS assay transducing the Gi signaling to the Gq pathway is described below.
pcDNA3hygroP2Y12 containing a hygromycin resistance gene and pLEC1-Gqi5-HA containing a neomycin resistance gene (licensed from Molecular Devices, Sunnyvale, Calif.) were co-transfected into Human embryonic kidney (HEK) 293 cells with SuperFect (Qiagen, Valencia, Calif.). Cell clones were selected in the presence of 600 μg/ml hygromycin B (Life Technologies, Carlsbad, Calif.) and 1 mg/ml of G418 (Mediatech, Herndon, Va.). Drug resistant colonies were picked and screened by FLIPR and the gene expression was further confirmed by RT-PCR. Positive clones were maintained in growth medium (DMEM supplemented with 10% FBS, 1× p/s) containing 400 μg/ml of G418 and 200 μg/ml of hygromycin.
The day before the assay, cells are seeded in clear, flat-bottom black-wall, tissue culture treated polystyrene 96- or 384-well plates and incubated at 37° C., 5% CO2. 50 μl of complete dye loading solution (FLIPR Calcium Assay Kit, Molecular Devices) was added to each well containing 100 μl of culture media. The cells were incubated for at least 30 min at 37° C., in 5% CO2 before initiating the assay on the FLIPR. The agonist effect of ADP was tested and EC50 was determined prior to compound testing. The EC60-70 dose was used.
The antagonist compounds were prepared at 4× and the agonists were diluted at 5× the concentration desired in the test wells, and then aliquoted into the sample plates. The sample plates and the cell plate were placed in the FLIPR assay chamber. A first addition (50 μl) was made at the start of reading and a second addition (50 μl) was made after 5 min of reading. Raw fluorescence data was exported for each well and tabulated versus time within an ASCII file. Data was then imported into Excel and the peak response over the basal level was determined. The percent inhibition for each compound was calculated by the change in fluorescent density as a % inhibition of the control ADP response to obtain an IC50, as shown in Table 1 (wherein N/A means Not Applicable).

| SMILES | IC50 (platelets) [µM] | IC50 (P2Y12 receptor) [µM] | IC50 (ADP P2Y12 receptor) [µM] |
| --- | --- | --- | --- |
| CCCCNc1nc(SCCC)nc2c1nnn2[C@@H]1C[C@H](C2=NCCN2)[C@@H](O)[C@H]1O [Cpd 11, (1R,2S,3R,5R)-3-(7-butylamino-5-propylsulfanyl-[1,2,3]triazolo[4,5-d]pyrimidin-3-yl)-5-(4,5-dihydro-1H-imidazol-2-yl)-cyclopentane-1,2-diol] | > 30 | 4.61 | > 30 |
| CCCSc1nc(NCCc2ccccc2)c2nnn([C@@H]3C[C@H](c4nnn[nH]4)[C@@H](O)[C@H]3O)c2n1 [Cpd 12, (1R,2S,3R,5R)-3-(7-phenethylamino-5-propylsulfanyl-[1,2,3]triazolo[4,5-d]pyrimidin-3-yl)-5-(1H-tetrazol-5-yl)-cyclopentane-1,2-diol] | 0.292 | 0.73 | 0.416 |
| CCCCNc1nc(SCCC)nc2c1nnn2[C@@H]1C[C@H](c2nnc(C)[nH]2)[C@@H](O)[C@H]1O [Cpd 13, (1R,2S,3R,5R)-3-(7-butylamino-5-propylsulfanyl-[1,2,3]triazolo[4,5-d]pyrimidin-3-yl)-5-(5-methyl-4H-[1,2,4]triazol-3-yl)-cyclopentane-1,2-diol] | 1.39 | 2.16 | 2.17 |
| CCCSc1nc(NCCc2cccs2)c2nnn([C@@H]3C[C@H](c4nnc(C)[nH]4)[C@@H](O)[C@H]3O)c2n1 [Cpd 15, (1S,2R,3R,5R)-3-(5-methyl-4H-[1,2,4]triazol-3-yl)-5-[5-propylsulfanyl-7-(2-thiophen-2-yl-ethylamino)-[1,2,3]triazolo[4,5-d]pyrimidin-3-yl]-cyclopentane-1,2-diol] | 6.47 | 3.74 | 10.4 |
| CCCSc1nc(NC[C@@H](C)c2ccccc2)c2nnn([C@@H]3C[C@H](c4nnc(C)[nH]4)[C@@H](O)[C@H]3O)c2n1 [Cpd 16, (1S,2R,3R,5R)-3-(5-methyl-4H-[1,2,4]triazol-3-yl)-5-{7-[(2S)-2-phenylpropylamino]-5-propylsulfanyl-[1,2,3]triazolo[4,5-d]pyrimidin-3-yl}-cyclopentane-1,2-diol] | > 30 | 3.88 | > 30 |
| CCCSc1nc(NC[C@H](C)c2ccccc2)c2nnn([C@@H]3C[C@H](c4nnc(C)[nH]4)[C@@H](O)[C@H]3O)c2n1 [Cpd 17, (1S,2R,3R,5R)-3-(5-methyl-4H-[1,2,4]triazol-3-yl)-5-{7-[(2R)-2-phenylpropylamino]-5-propylsulfanyl-[1,2,3]triazolo[4,5-d]pyrimidin-3-yl}-cyclopentane-1,2-diol] | > 30 | 9.59 | > 30 |
| CCCSc1nc(NCC(F)(F)F)c2nnn([C@@H]3C[C@H](c4nnc(C)[nH]4)[C@@H](O)[C@H]3O)c2n1 [Cpd 18, (1S,2R,3R,5R)-3-(5-methyl-4H-[1,2,4]triazol-3-yl)-5-[5-propylsulfanyl-7-(2,2,2-trifluoro-ethylamino)-[1,2,3]triazolo[4,5-d]pyrimidin-3-yl]-cyclopentane-1,2-diol] | > 30 | 6.2 | > 30 |
| CCCSc1nc(NCCSC)c2nnn([C@@H]3C[C@H](c4nnc(C)[nH]4)[C@@H](O)[C@H]3O)c2n1 [Cpd 19, (1R,2S,3R,5R)-3-[7-(2-methylsulfanyl-ethylamino)-5-propylsulfanyl-[1,2,3]triazolo[4,5-d]pyrimidin-3-yl]-5-(5-methyl-4H-[1,2,4]triazol-3-yl)-cyclopentane-1,2-diol] | > 30 | 5.09 | > 30 |
| CCCCNc1nc(SCCC)nc2c1nnn2[C@@H]1C[C@H](c2nnc[nH]2)[C@@H](O)[C@H]1O [Cpd 20, (1R,2S,3R,5R)-3-(7-butylamino-5-propylsulfanyl-[1,2,3]triazolo[4,5-d]pyrimidin-3-yl)-5-(4H-[1,2,4]triazol-3-yl)-cyclopentane-1,2-diol] | 0.198 | 0.422 | 0.765 |
| CCCSc1nc(N[C@@H]2C[C@H]2c2ccccc2)c2nnn([C@@H]3C[C@H](c4nnn[nH]4)[C@@H](O)[C@H]3O)c2n1 [Cpd 22, (1R,2S,3R,5R)-3-{7-[(1R,2S)-2-phenyl-cyclopropylamino]-5-propylsulfanyl-[1,2,3]triazolo[4,5-d]pyrimidin-3-yl}-5-(1H-tetrazol-5-yl)-cyclopentane-1,2-diol] | 0.002 | 0.002 | 0.024 |
| CCCSc1nc(N[C@H]2C[C@@H]2c2ccccc2)c2nnn([C@@H]3C[C@H](c4nnn[nH]4)[C@@H](O)[C@H]3O)c2n1 [Cpd 23, (1R,2S,3R,5R)-3-{7-[(1S,2R)-2-phenyl-cyclopropylamino]-5-propylsulfanyl-[1,2,3]triazolo[4,5-d]pyrimidin-3-yl}-5-(1H-tetrazol-5-yl)-cyclopentane-1,2-diol] | 0.04 | 0.061 | 0.264 |
